Like-named read-outs stand apart in the source and are kept apart here.
System: C3H10 T1/2 cells
Assay: Adipocyte differentiation / automated determination of lipid accumulation in adipocytes
Format: cell-based
Details: Mus musculus, C3H 10T1/2, 168 h, 50 micromolar chicoric acid, differentiated C3H10 T1/2 adipocytes, 7 days in DM-Supplemented (200nM Insulin, 10µM Rosiglitazone)
Method: C3H10 T1/2 cells were seeded on Collagen Type I coated 24-well plates at a cell density of 3.8x10^4 cells/mL in Differentiation Base medium (DM-Base), containing DMEM without Phenol Red, supplemented with 10% FCS, 4mM L-Glutamine and 1% Pen/Strep (v/v) at 37° C in an incubator with 5% CO2 atmosphere and 85%-90% relative humidity over 72hours. After this pre-incubation, DM-Base is replaced by DM-Supplemented, containing DM-Base plus 200nM Insulin, plus 10µM Rosiglitazone. Test compounds (e.g.: chicoric acid) were added in DM-Supplemented, and kept in culture for 7 consecutive days. Each experiment was performed in triplicates. Every second day medium and compounds were renewed.
Cells were fixed by adding 1mL of 60% 2-Propanot in PBS to each well and incubated for 1.5h at 4°C. The cells were then twice washed with 1mL PBS/well. […]
Lipid droplets were quantified with the Cellomics® Array Scan® VTI HCS Reader. Fat droplets were detected with the provided SpotDetector® Bio-Application. The fluorescent dye, BODIPY® 493/503, was used to visualise and quantify fat droplets (number, area, intensity) in differentiated C3H10 T1/2 adipocytes. […] Channel one (Ch1) applies the XF93-Hoechst filter and is the focus channel in which objects (nuclei) are identified, whereas the spots (fat droplets) are detected in channel two (Ch2) using a XF93-FITC filter.

O=C(/C=C/c1ccc(O)c(O)c1)O[C@H](C(=O)O)[C@H](OC(=O)/C=C/c1ccc(O)c(O)c1)C(=O)O (stereo in doubt) [chicoric acid, Chicoric acid] was tested, and the inhibition at 50 µM (read-out: decrease in the average number of lipid droplets per adipocyte) was 69% and the inhibition at 50 µM (read-out: decrease in the average size of the lipid droplets in adipocytes) was 42%.
